Here are results for five compounds from US9029332B2, “Cross-linked peptides and proteins, methods of making same, and uses thereof” (The Research Foundation for The State University of New York, priority 2010, dated 2015).

In general, IC50 refers to the concentration that inhibits the measured activity by half.

A short description of series [1]: Circular dichroism, percent helicity. The format is physicochemical. To be noted: compared to the linear NoxaBH3 peptide, 50 μM in 20% ACN/H2O. As for the experimental part: FIG. 12. […] The peptides were dissolved in 20% ACN/H2O for a final concentration of 50 μM.
Circular Dichroism Study. […] The spectra were recorded in the wavelength range of 190-250 nm and averaged over 3 scans with a resolution of 0.5 nm, a bandwidth of 1.0 nm and a response time of 4 s. The sensitivity and the speed of the spectrometer were set to 100 mdeg and 50 nm/min, respectively. All peptides were dissolved in 20% acetonitrile/H2O to reach final concentration of 50 μM.
On the technique in general: Circular dichroism is the unequal absorption of left and right circularly polarised light.

Series [2] relates to HeLa cells. As to the kind of experiment: Cellular uptake of fluorescein-labeled Noxa peptides by FACS and fluorescence microscopy. Particulars: 10 μM fluorescein-labeled peptide, 2 hours. It is filed as cell-based. The method, then: FIG. 13. […] (a) Flow cytometry analysis of cell permeability of the FITC-labeled linear or stapled peptide. HeLa cells were treated with 10 μM of fluorescein-labeled peptides in serum-free DMEM medium for 2 hours followed by fixation with formaldehyde. (b) Fluorescent micrographs of HeLa cells treated with 10 μM of fluorescein-labeled (Fl) linear or cross-linked NoxaBH3 peptide. Scale bar=50 μm.
To investigate cellular uptake of the cross-linked peptides, the N-terminal fluorescein-labeled cross-linked NoxaBH3 peptides (5a, 6a, 7a, 8a) and linear peptide Fl-Noxa-(75-93)-C75A were prepared and their uptakes into HeLa cells were examined by both FACS and fluorescence microscopy. […] To examine whether the cross-linked peptides induce apoptosis, Mcl-1-overexpressing Raji cells and K562 cells co-transfected with Mcl-1/BimEL were treated with the cross-linked peptides and the cell viabilities were measured by CellTiter-Glo reagent. […] For the remaining peptides, the following SEQ ID NOs apply: peptide 9a and 10A are SEQ ID NO:17; 11a and 12 a are SEQ ID NO:18; 5c, 5d, 5e, Fluo-5a, Fluo-6a, and Fluo-6b are SEQ ID NO:16; Fluo-NoxaB^75-94-C75A is SEQ ID NO:15; and Fluo-71 is SEQ ID NO:17.
On the technique in general: A flow cytometer gives signals particle by particle.

The test system of series [3] is HeLa cells. In words: Confocal microscopy of fixed HeLa cells, cellular fluorescence. It is filed as cell-based. To be noted: 10 μM fluorescein-conjugated peptide, 2 hours. As for the experimental part: (§1) FIG. 8. (a) Confocal images of fixed HeLa cells after treatment with 10 μM of fluorescein-conjugated peptides for 2 hours. Scale bar=50 μm. (b) Cell viability assay using the CellTiter-Glo reagent.
HeLa Cells were seeded into 35 mm glass bottom microwell dishes (MatTek, Ashland, Mass.) at a density of 3×105 in DMEM medium supplemented with 10% fetal bovine serum, and the cells were allowed to grow in a 37° C. 5% CO2 incubator for 48 hours. After removing medium, the cells were washed twice with PBS and then incubated in serum-free DMEM medium for 30 minutes. Appropriate amounts of peptides (1 mM in DMSO) were then added to obtain a final concentration of 10 μM and cells were incubated at 37° C. for 2 hours. After PBS wash, cells were treated with 4% formaldehyde in PBS for 20 minutes at room temperature. The fixation medium was removed and the cells were washed with PBS (3×) before placing cells into the low florescent mounting medium for fluorescent imaging acquisition.

In series [4] the test system is HeLa cells. As to the kind of experiment: Cell viability assay (CellTiter-Glo, ATP) and DIC imaging, cytotoxicity. It is filed as cell-based. To be noted: 10 μM, 2 hours; DIC channel and ATP assay. As for the experimental part: as §1
Cell Viability Assay. HeLa cells were seeded into an opaque 96-well plate at a density of 1×10^4 per well in 100 μL DMEM medium supplemented with 10% FBS and the cells were allowed to grow in a 37° C. 5% CO2 incubator for 48 hrs to reach confluency of around 80%. Prior to the compound treatment, the medium was replaced with serum-free medium and the cells were incubated for 30 minutes. Appropriate amounts of peptides (1 mM in DMSO) were then added to obtain a final concentration of 10 μM and the cells were incubated at 37° C. for 2 hours. Afterwards, the plate was allowed to stand at room temperature for 30 minutes before 100 μL of Cell-Titer Glow reagent (Promega) was added. The plate was incubated at room temperature for 10 minutes. The luminescence signals were recorded with an FLX 800 luminescence plate reader (BioTek). The plotted data represented the average of the readings from 4 separate wells.

Series [5] has as its system HeLa cells. As to the kind of experiment: FACS analysis of cell permeability of fluorescein-conjugated peptides. The format is cell-based. Particulars: 10 μM fluorescein-conjugated peptide, 2 h. The method, then: FACS Analysis. HeLa Cells were cultured in DMEM medium supplemented with 10% fetal bovine serum in 6-well plate in a 37° C., 5% CO2 incubator to reach confluency of around 70%. The cells were then washed twice with PBS before switching to serum-free DMEM medium. After standing in the incubator for 30 minutes, appropriate amounts of peptides (1 mM in DMSO) were added to the culture plate to obtain a final peptide concentration of 10 μM. Cells were incubated at 37° C. for additional 2 hrs. Then the medium was removed and the cells were washed with PBS (3×) followed by treatment with trypsin to detach the cells. After a brief low-speed centrifugation, the HeLa cells were collected and re-suspended in PBS for the FACS analysis.

For series [6], the target named is T1, full-length human MDMX (GST-MDMX) (Homo sapiens, UniProt O15151).
T1 construct: GST-MDM2 and GST-MDMX containing full-length human MDM2 and MDMX; made in house; host or cells: Escherichia coli
T1 sequence (O15151 1-490): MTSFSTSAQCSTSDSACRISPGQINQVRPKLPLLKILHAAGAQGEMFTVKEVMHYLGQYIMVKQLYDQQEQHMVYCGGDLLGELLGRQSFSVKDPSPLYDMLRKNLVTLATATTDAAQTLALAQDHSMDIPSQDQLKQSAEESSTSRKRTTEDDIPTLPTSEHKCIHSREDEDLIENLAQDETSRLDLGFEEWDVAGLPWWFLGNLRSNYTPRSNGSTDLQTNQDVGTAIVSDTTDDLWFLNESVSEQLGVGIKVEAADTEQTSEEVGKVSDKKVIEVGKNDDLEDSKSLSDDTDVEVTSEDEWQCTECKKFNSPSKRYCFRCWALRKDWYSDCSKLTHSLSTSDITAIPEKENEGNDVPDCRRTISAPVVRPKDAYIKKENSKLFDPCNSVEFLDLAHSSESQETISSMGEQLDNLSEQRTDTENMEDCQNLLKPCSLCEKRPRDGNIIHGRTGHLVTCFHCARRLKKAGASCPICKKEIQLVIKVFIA
As to the kind of experiment: ELISA, inhibition of p53-MDMX interaction. Particulars: relative to linear counterpart 3. The format is binding. From the text: FIG. 10. ELISA data of the cross-linked PDI analogs. The experiments were repeated three times and the resulting data were plotted with GraphPad Prism 5.0 to derive the average IC50 values along with standard deviations.
ELISA Assay. GST-MDM2 and GST-MDMX containing full-length human MDM2 and MDMX and His6-tagged human p53 were expressed in Escherichia coli and purified by glutathione agarose and Ni^2+-nitrilotriacetic acid beads, respectively, under non-denaturing conditions. Microtiter plates were coated with 2.5 μg/ml His6-p53 in PBS buffer for 16 hours. After washing with PBS containing 0.1% Tween-20 (PBST), the plates were blocked with PBST containing 5% nonfat dry milk (PBSTM) for 30 minutes. Peptides were dissolved in DMSO. GST-MDM2 and MDMX (5 μg/ml) were mixed with peptides in PBSMT containing 10% glycerol and 10 mM dithiolthreitol prior to their additions to the wells at the specified concentrations. The incubation was allowed to proceed for 1 hour at room temperature before the plates were washed with PBST. […] The plates were developed by incubation with TMB peroxidase substrate (KPL, Gaithersburg, Md.) and measured by absorbance at 450 nm. The data was analyzed with the Origin 6.0 software. […]
On the technique in general: An ELISA detects its analyte on a solid surface through an enzyme-linked reagent.

For another series, the target named is Mcl-1 (Homo sapiens, UniProt Q07820). In words: ELISA of cross-linked Noxa peptides. The format is binding.
The target in another series is GST-Mcl-1 (Homo sapiens, UniProt Q07820). In words: Competitive fluorescence polarization assay. It is filed as binding. The method, then:
Competitive Florescence Polarization Assay. The binding affinity of the Noxa peptides toward GST-Mcl-1 was determined in a competitive fluorescence polarization assay with the fluorescein-labeled Bak or Bim. Briefly, fluorescein-labeled Bak was incubated with GST-Mcl-1 in a binding buffer (PBS, 0.005% Tween-20, pH7.4) at room temperature in a 96-well microtiter plate. […] The reading was repeated at various time points to ensure that the competition has reached equilibrium.

Numbered stars: 1 amine (or outer) side, 2 acyl side, 3 side chain; on linkers, the order of the positions; unused ones are H or OH. Bridge positions count the residues as written; N and C are the ends. Square brackets hold non-standard residues; d marks the D form. Peptide text beside a SMILES is read from it. CH2(3,3'-bipyridine-6,6')CH2 = c1cc(C[*:1])ncc1-c1ccc(C[*:2])nc1

Sequence of GST-Mcl-1 (Q07820 whole entry): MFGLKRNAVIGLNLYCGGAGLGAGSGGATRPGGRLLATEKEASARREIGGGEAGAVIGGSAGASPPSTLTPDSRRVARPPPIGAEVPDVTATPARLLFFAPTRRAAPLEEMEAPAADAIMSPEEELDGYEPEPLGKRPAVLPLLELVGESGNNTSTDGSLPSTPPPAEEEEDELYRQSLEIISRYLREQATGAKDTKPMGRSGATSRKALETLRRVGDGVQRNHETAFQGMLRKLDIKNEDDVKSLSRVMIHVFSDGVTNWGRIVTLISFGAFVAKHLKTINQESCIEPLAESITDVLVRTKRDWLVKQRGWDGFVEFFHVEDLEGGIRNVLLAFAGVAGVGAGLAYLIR
Sequence of Mcl-1 (Q07820 whole entry, species assumed): as the sequence (Q07820 whole entry) above

For `CC[C@H](C)[C@@H]1NC(=O)[C@H](CCCNC(=N)N)NC(=O)[C@H](CCCNC(=N)N)NC(=O)[C@H](CC(C)C)NC(=O)[C@@](C)(NC(=O)[C@H](C)NC(=O)[C@H](C)NC(C)=O)CSCc2ccc(cc2)-c2ccc(cc2)CSC[C@@](C)(C(=O)N[C@H](C(=O)N[C@@H](CC(N)=O)C(=O)N[C@@H](CC(C)C)C(=O)N[C@@H](CCCNC(=N)N)C(=O)N[C@@H](CCC(N)=O)C(=O)N[C@@H](CCCCN)C(=O)N[C@@H](CC(C)C)C(=O)N[C@@H](CC(C)C)C(=O)N[C@@H](CC(N)=O)C(N)=O)C(C)C)NC(=O)[C@H](CC(=O)O)NC(=O)CNC1=O` [Peptide 8a], in series [1], the “enhancement in percent helicity” value was around 3 fold. In the series on HeLa cells [2], the cellular uptake result is reported as “robust uptakes”.
In the case of `CC(=O)N[C@@H](CC(C)C)C(=O)N[C@H](C(=O)N[C@@H](Cc1ccccc1)C(=O)N[C@H]1CSCc2ccc(cn2)-c2ccc(nc2)CSC[C@@H](C(=O)N[C@@H](CO)C(N)=O)NC(=O)[C@H](CC(C)C)NC(=O)[C@H](CCCNC(=N)N)NC(=O)[C@H](C)NC(=O)[C@H](Cc2c[nH]c3ccccc23)NC(=O)[C@H](Cc2ccc(O)cc2)NC(=O)[C@H](CCCNC(=N)N)NC1=O)[C@@H](C)O` [Peptide 2b, LTFC″RYWARLC″S] (Ac-LTFCRYWARLCS-NH2; linker 4-11 via CH2(3,3'-bipyridine-6,6')CH2), the “cellular fluorescence, FITC channel” value in the series with HeLa cells [3] is “strongest cellular fluorescence”. Also, the cytotoxicity entry in the series on HeLa cells [4] is listed as “apparent cytotoxicity”. Besides, in the series on HeLa cells [5] (compared to charge-neutral counterpart), the “increase in mean fluorescence / permeability by arginine substitution” value was 2 fold. For the same compound, in the series with HeLa cells [5] (over linear counterpart), the “increase in mean fluorescence by Bpy cross-linking” value is around 5 fold.
For the compound `CC(=O)N[C@@H](CC(C)C)C(=O)N[C@H](C(=O)N[C@@H](Cc1ccccc1)C(=O)N[C@@H]1CSCc2ccc(cn2)-c2ccc(nc2)CSC[C@@H](C(=O)N[C@@H](CO)C(N)=O)NC(=O)[C@H](CC(C)C)NC(=O)[C@H](CCC(N)=O)NC(=O)[C@H](C)NC(=O)[C@H](Cc2c[nH]c3ccccc23)NC(=O)[C@H](Cc2ccc(O)cc2)NC(=O)[C@H](Cc2c[nH]cn2)NC1=O)[C@@H](C)O` [Peptide 3b, LTFc″HYWAQLC″S] (Ac-LTF[dC]HYWAQLCS-NH2; linker 4-11 via CH2(3,3'-bipyridine-6,6')CH2), the cytotoxicity entry in the series with HeLa cells [4] is reported as “did not show any cytotoxicity”. In addition, the “increase in MDMX activity” value in series [6] is 24 fold.
For the compound `CC[C@H](C)[C@@H]1NC(=O)[C@H](CCCNC(=N)N)NC(=O)[C@H](CCCNC(=N)N)NC(=O)[C@H](CC(C)C)NC(=O)[C@H](NC(=O)[C@H](C)NC(=O)[C@H](C)NC(C)=O)CSCc2ccc(cc2)-c2ccc(cc2)CSC[C@@H](C(=O)N[C@H](C(=O)N[C@@H](CC(N)=O)C(=O)N[C@@H](CC(C)C)C(=O)N[C@@H](CCCNC(=N)N)C(=O)N[C@@H](CCC(N)=O)C(=O)N[C@@H](CCCCN)C(=O)N[C@@H](CC(C)C)C(=O)N[C@@H](CC(C)C)C(=O)N[C@@H](CC(N)=O)C(N)=O)C(C)C)NC(=O)[C@H](CC(=O)O)NC(=O)CNC1=O` [Peptide 6a], in series [1], the “enhancement in percent helicity” value is listed as “roughly 2 fold”. Further, the half-inhibitory concentration (IC50) on Mcl-1 is 260 nM; at GST-Mcl-1 (Noxa peptides, three repeats ± SD, read-out: FP, IC50), 73 ± 18 nM. Besides, the cellular uptake result with HeLa cells [2] is listed as “robust uptakes”. Also, the “increase in activity in FPA” value at GST-Mcl-1 (compared to the parent linear peptide) worked out at 37 fold.
Take `CC(=O)N[C@@H](CC(C)C)C(=O)N[C@H](C(=O)N[C@@H](Cc1ccccc1)C(=O)N[C@@H]1CSCc2ccc(cn2)-c2ccc(nc2)CSC[C@@H](C(=O)N[C@@H](CO)C(N)=O)NC(=O)[C@H](CC(C)C)NC(=O)[C@H](CCCNC(=N)N)NC(=O)[C@H](C)NC(=O)[C@H](Cc2c[nH]c3ccccc23)NC(=O)[C@H](Cc2ccc(O)cc2)NC(=O)[C@H](CCCNC(=N)N)NC1=O)[C@@H](C)O` [Peptide 4b, LTFc″RYWARLC″S] (Ac-LTF[dC]RYWARLCS-NH2; linker 4-11 via CH2(3,3'-bipyridine-6,6')CH2; C-terminus assumed): the “cellular fluorescence, FITC channel” value in the series with HeLa cells [3] is reported as “strongest cellular fluorescence”. Moreover, the cytotoxicity entry in the series with HeLa cells [4] is given as “apparent cytotoxicity”.
